Assay results as given in patent US9938335B2, “Glucagon and GLP-1 co-agonist compounds” (Eli Lilly and Company, priority 2015, dated 2018).
Read-outs that look alike come from different tables or passages of the source.

Legend:
[1] = Viscosity (Rheosense mVroc Viscometer); assay type: physicochemical; settings: approximately 10 mg/mL peptide in 10 mM Tris + 3 mg/mL m-cresol at pH 8.0; 25° C.; shear rate 1934 s^−1
rat GLP-1-R = target: T1, rat GLP-1-R (Rattus norvegicus, UniProt P32301); assay: Functional activation of the rat GLP-1-R in insulinoma cell line INS1 832-3 (cAMP); assay type: cell-based
T1 construct: stimulating cAMP production at the endogenous GLP-1 receptors; endogenous in cells; host or cells: INS1 832-3 rat insulinoma cells
T1 sequence (P32301 22-463): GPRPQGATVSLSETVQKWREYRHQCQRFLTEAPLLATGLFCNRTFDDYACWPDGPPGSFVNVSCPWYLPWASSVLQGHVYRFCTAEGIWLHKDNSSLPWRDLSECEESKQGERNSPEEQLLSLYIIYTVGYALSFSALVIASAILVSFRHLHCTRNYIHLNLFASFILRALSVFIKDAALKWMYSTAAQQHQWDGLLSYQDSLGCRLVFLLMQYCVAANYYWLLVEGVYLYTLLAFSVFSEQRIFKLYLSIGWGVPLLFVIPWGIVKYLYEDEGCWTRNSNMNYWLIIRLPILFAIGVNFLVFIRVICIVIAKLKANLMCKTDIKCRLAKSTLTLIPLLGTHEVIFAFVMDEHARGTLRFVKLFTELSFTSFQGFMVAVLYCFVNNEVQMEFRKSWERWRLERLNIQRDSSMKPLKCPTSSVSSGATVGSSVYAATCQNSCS
Procedure: Performance of the assay requires detachment of the cells from culture flasks using Enzyme Free Cell Stripper and pelleted by centrifugation at 1000 rpm for 5 minutes at room temperature. […] After 2 hours starvation, cells are treated with compound by adding 10 μl of 5× compound dilutions into the cell plates (n=2) and incubated in a 37° C., 5% CO2 incubator for 30 minutes.
cAMP concentration is measured using a HTRF cAMP assay kit (Cisbio): cAMP-d2 conjugate in cell lysis buffer (20 μl) followed by the antibody anti-cAMP-Eu^3+-Cryptate, also in cell lysis buffer (20 μl), is added to the cells of the plate.
The assay is performed with duplicated plates.

[2] = Pharmacokinetics in cynomolgus monkeys; assay type: in vivo; settings: Table 8: single SC 50 nmol/kg; for Cmax: read-out: Cmax
Procedure: The compounds are administered by a single intravenous or subcutaneous dose of 50 nmole/kg or 250 nmole/kg.
The plasma concentrations of compounds are determined by a LC/MS method. Briefly, a compound of the present invention is extracted from 100% monkey plasma (25 μl) using acetonitrile. Two distinct layers are formed upon centrifugation with the compound located in the liquid layer. An 80 μl aliquot of the supernatant was transferred to a 96-well plate, diluted with 150 μl of water and 25 μl of formic acid. The diluted sample (10 μl) was injected onto a Supelco Analytical Discovery BIO Wide Pore C5-3, 5 cm×1 mm, 3 um column. The column effluent is directed into a Thermo Q-Exactive mass spectrometer for detection and quantitation.

DIO mice (C57BL/6) = assay: Effects on energy expenditure in DIO mice (indirect calorimetry); assay type: in vivo, mouse; settings: for Cumulative Heat (Kcal/kg lean mass/3 day): test article 15 nmol/kg, semaglutide 60 nmol/kg sc every three days
Procedure: Seven to eight months old male DIO mice (C57BL/6) weighing 45-50 g are used in this study to assess the effect of compounds of the present invention on energy metabolism. Animals are individually housed in a temperature-controlled (24° C.) facility with a 12 hour light/dark cycle (lights on 22:00), and free access to food (TD95217)(Teklad) and water. After 2 weeks acclimation to the facility, mice are randomized to treatment groups (N=6/group) based on body weight so each group has similar starting mean body weight. Animals are placed in a PhenoMaster/LabMaster calorimeter (TSE Systems, Chesterfield, Mo.) for 8 days of acclimation.
Heat and […] (RER) are measured by indirect calorimetry as described using an open-circuit calorimetry system. RER is the ratio of the volume of CO2 produced (VCO2) to the volume of O2 consumed (VO2). Heat is calculated with lean body weight considered. The energy expenditure is kcal/kg/3 day and expressed as mean±SEM of 6 mice per group. Statistical significance is assessed by two-way ANOVA followed by Tukey's multiple comparison test.

hGcg-R = hGcg-R (Homo sapiens, UniProt P47871); assay: Functional activation of hGcg-R in primary human hepatocytes (cAMP); assay type: cell-based; design: stimulating cAMP production at the endogenous Gcg receptors; endogenous in cells; host or cells: cryopreserved primary human hepatocytes
hGcg-R, sequence (P47871 26-477): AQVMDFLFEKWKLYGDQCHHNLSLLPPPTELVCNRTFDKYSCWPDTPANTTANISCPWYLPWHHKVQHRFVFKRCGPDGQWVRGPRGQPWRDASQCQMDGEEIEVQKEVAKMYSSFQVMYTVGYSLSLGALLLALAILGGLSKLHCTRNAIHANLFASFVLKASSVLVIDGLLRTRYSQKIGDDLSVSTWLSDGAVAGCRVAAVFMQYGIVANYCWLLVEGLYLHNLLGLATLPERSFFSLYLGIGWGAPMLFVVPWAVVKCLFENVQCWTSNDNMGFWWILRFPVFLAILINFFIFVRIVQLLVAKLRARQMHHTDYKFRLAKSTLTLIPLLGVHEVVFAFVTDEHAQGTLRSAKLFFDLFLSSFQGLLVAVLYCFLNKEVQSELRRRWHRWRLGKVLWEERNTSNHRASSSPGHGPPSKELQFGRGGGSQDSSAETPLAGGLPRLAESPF
Procedure: Primary human hepatocytes are used to determine functional activity of compounds on stimulating cAMP production at the endogenous Gcg receptors. Vials of human primary hepatocytes are frozen in a liquid nitrogen tank. Upon removal, vials are thawed immediately in a water bath having a temperature of 37° C. Cell suspension is then transferred to 50 ml CHRM (Gibco/Life Technologies cat#CM7000 Cryopreserved Hepatocyte Recovery Medium).
The cell suspension is centrifuged at 1,000×g for 10 min. Cell pellets are resuspended in 5 ml of Plating Media after removing the CHRM by aspiration. The Plating Media is prepared by adding entire contents of CM3000 Supplement Packs to 500 ml Williams Media (Gibco/Life Technologies), followed by sterile filtration through a 0.22 μm membrane.
The cell density is counted on hemocytometer, by adding 100 μl of cell suspension to 100 μl Trypan Blue (HyClone Trypan Blue 0.04%, catalog number SV30084.01). The cell suspension is further diluted in the Plating Media to the final cell density of 0.8×10^6 cells per ml. […] 65 ml of the cell suspension is then added to each well of the Collagen coated 96-well plate to final cell density 50,000 cells per well. The cell plate is incubated in a 37° C., 5% CO2 incubator for 3-4 hours.
After 3-4 hours incubation, the media is aspirated and replaced with 100 ml Maintenance Media. The maintenance media is prepared by adding entire contents of CM4000 Supplement Packs to 500 ml Williams Media (Gibco/Life Technologies), followed by sterile filtration through a 0.22 μm membrane. The cell plate is returned to the 37° C., 5% CO2 incubator overnight in preparation for the cAMP assay.
The cell plate is removed from the incubator and the media is removed by gentle aspiration without disturbing the cell monolayer.
cAMP concentration is measured using a HTRF cAMP assay kit (Cisbio): cAMP-d2 conjugate in cell lysis buffer (40 μl) followed by the antibody anti-cAMP-Eu^3+-Cryptate, also in cell lysis buffer (40 μl), is added to the cells of the plate.

[3] = male, cynomolgus monkey, plasma, sc, 50 nmol/kg, individual animals
[4] = male, cynomolgus monkey, plasma, sc, 50 nmol/kg, mean

## CC(C)C[C@H](NC(=O)[C@H](CC(C)C)NC(=O)[C@H](Cc1c[nH]c2ccccc12)NC(=O)[C@H](CCC(=O)O)NC(=O)[C@@H](NC(=O)[C@H](Cc1ccccc1)NC(=O)[C@H](CCC(=O)O)NC(=O)[C@H](CCCCNC(=O)COCCOCCNC(=O)COCCOCCNC(=O)CC[C@H](NC(=O)CCCCCCCCCCCCCCCCC(=O)O)C(=O)O)NC(=O)[C@H](C)NC(=O)[C@H](CCCCN)NC(=O)[C@H](CCCCN)NC(=O)[C@H](CCC(=O)O)NC(=O)[C@H](CC(=O)O)NC(=O)[C@H](CC(C)C)NC(=O)[C@H](Cc1ccc(O)cc1)NC(=O)[C@H](CCCCN)NC(=O)[C@H](CO)NC(=O)[C@H](Cc1ccc(O)cc1)NC(=O)[C@H](CC(=O)O)NC(=O)[C@H](CO)NC(=O)[C@@H](NC(=O)[C@H](Cc1ccccc1)NC(=O)[C@@H](NC(=O)CNC(=O)[C@H](CCC(N)=O)NC(=O)C(C)(C)NC(=O)[C@@H](N)Cc1c[nH]cn1)[C@@H](C)O)[C@@H](C)O)C(C)C)C(=O)N[C@@H](CCC(=O)O)C(=O)NCC(=O)NCC(=O)N1CCC[C@H]1C(=O)N[C@@H](CO)C(=O)N[C@@H](CO)C(=O)NCC(N)=O [Compound 1]
[1]
  500 μL syringe Viscosity: 1.06 cP or mPa-s
Rat GLP-1-R; INS1 832-3 cells, cAMP, 30 minutes
  EC50: 26.1 nM
Rat GLP-1-R; INS1 832-3 cells, data not shown
  cAMP production: increased cAMP production in a dose-dependent manner
Rat GLP-1-R; INS1, percent of maximal response with native GLP-1 peptide at 300 nM
  Emax: 112%
[2]; individual animals
  AUC(0-inf): 21.672 µM·h
  CL/F: 2.31 mL/h/kg
  Cmax: 253 nM
[2]; male cynomolgus monkeys, individual animals
  T1/2: 47 h
[2]; [3]
  Tmax: 12 h
  Cmax: 236 nM
[2]; male, cynomolgus monkey, plasma, sc, 50 nmol/kg, individual animals, read-out: AUC0-inf
  AUC(0-inf): 24.9 µM·h
[2]; male, cynomolgus monkey, plasma, sc, 50 nmol/kg, individual animals, read-out: CL/F (converted)
  CL/F: 2.01 mL/h/kg
[2]; male, cynomolgus monkey, plasma, sc, 50 nmol/kg, male cynomolgus monkeys, individual animals
  half-life: 67 h
[2]; [4]
  Tmax: ~12 h
  half-life: 57 h
  Cmax: 244 nM
[2]; male, cynomolgus monkey, plasma, sc, 50 nmol/kg, mean, read-out: AUC0-inf
  AUC(0-inf): 23.3 µM·h
[2]; male, cynomolgus monkey, plasma, sc, 50 nmol/kg, mean, read-out: CL/F (converted)
  CL/F: 2.16 mL/h/kg
DIO mice (C57BL/6); DIO mice, chronic treatment
  metabolic rate: increased their metabolic rate starting from Week 2
DIO mice (C57BL/6); Day 1 to Day 4
  Cumulative Heat (Kcal/kg lean mass/3 day): 1749 ± 136 Kcal/kg lean mass/3 day
DIO mice (C57BL/6); Day 4 to Day 7
  Cumulative Heat (Kcal/kg lean mass/3 day): 1822 ± 173 Kcal/kg lean mass/3 day
DIO mice (C57BL/6); Day 7 to Day 10
  Cumulative Heat (Kcal/kg lean mass/3 day): 2349 ± 129 Kcal/kg lean mass/3 day
DIO mice (C57BL/6); Day 10 to Day 13
  Cumulative Heat (Kcal/kg lean mass/3 day): 2351 ± 144 Kcal/kg lean mass/3 day
hGcg-R; percent of maximal response with a Gcg analog conjugated to a saturated C18 fatty acid (diacid)
  Emax: 100%
hGcg-R; primary human hepatocytes, cAMP, 1 hour
  EC50: 99.9 nM
hGcg-R; primary human hepatocytes, data not shown
  cAMP production: increased cAMP production in a dose-dependent manner
